Source: BindingDB's records for doi:10.1016/j.chembiol.2016.11.013 (Peking University, 2017)

Tests used:
[1] = molecular target: T1, D-3-phosphoglycerate dehydrogenase (Homo sapiens, UniProt O43175); test: PHGDH Enzyme Assay; conditions: pH 7.1
T1 sequence (O43175 whole entry): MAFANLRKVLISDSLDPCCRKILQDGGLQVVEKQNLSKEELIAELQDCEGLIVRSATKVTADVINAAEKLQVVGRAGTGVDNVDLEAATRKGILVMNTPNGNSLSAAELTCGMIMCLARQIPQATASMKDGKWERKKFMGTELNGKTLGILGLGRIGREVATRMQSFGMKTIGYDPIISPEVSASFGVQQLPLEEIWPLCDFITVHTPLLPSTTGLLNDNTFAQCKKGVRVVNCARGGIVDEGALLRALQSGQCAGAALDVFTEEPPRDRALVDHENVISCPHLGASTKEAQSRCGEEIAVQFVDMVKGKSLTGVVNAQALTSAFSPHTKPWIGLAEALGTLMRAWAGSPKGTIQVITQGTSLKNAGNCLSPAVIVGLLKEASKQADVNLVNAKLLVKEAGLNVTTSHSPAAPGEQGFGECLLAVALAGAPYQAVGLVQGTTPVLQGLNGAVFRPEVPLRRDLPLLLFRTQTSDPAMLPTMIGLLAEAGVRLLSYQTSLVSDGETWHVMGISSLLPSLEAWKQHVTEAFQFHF
Experimental: (§1) To evaluate the effects of compounds on PHGDH activity, compounds were first pre-incubated with enzyme samples in the assay buffer (25 mM HEPES, pH 7.1, 400 mM KCl, 5 μM phosphopyridoxa (PLP), 0.5 mM α-ketoglutarate, 150 μM NADH, 1 mM DTT) for 10 min at 25℃, then the reaction was started by adding L-phospho-O-serine (Pser). […] Fluorescence signals were recorded for 3 min with a kinetics mode program using on a plate reader (Synergy, Biotek).

[2] = molecular target: T2, D-3-phosphoglycerate dehydrogenase [3-314] (Homo sapiens, UniProt O43175); test: PHGDH Enzyme Assay; conditions: pH 7.1
T2 construct: 3-314
T2 sequence (O43175 whole entry): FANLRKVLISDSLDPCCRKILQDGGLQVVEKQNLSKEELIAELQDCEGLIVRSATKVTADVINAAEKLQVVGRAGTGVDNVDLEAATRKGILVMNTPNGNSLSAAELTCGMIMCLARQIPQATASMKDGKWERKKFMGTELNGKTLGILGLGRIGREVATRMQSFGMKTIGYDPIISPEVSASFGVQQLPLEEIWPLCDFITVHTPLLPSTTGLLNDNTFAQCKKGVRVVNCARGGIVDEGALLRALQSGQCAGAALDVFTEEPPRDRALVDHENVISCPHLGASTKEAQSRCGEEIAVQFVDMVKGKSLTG
Experimental: as §1

[3] = molecular target: T1, D-3-phosphoglycerate dehydrogenase; test: PHGDH SPR Assay; conditions: pH 7.4
Experimental: The binding affinities of compounds towards PHGDH were assayed using the SPR-based Biacore T200 instrument (GE Healthcare). PHGDH was immobilized on a CM5 sensor chip by using standard amine-coupling at 25℃ with running buffer PBS-P (20 mM phosphate buffer, […], 0.05% surfactant P-20, pH 7.4), respectively, as described previously. A reference flow cell was activated and blocked in the absence of PHGDH. […] Regeneration was achieved by extended washing with the running buffer after each sample injection.

Structure (SMILES) | IC50 [1] | IC50 [2] | Kd [3] | Kd ([3]; read-out: Kd)
O=C1N[C@H]2[C@H](CS[C@H]2CCCCC(=O)OCc2cc([N+](=O)[O-])cc(/C=N/NC(=O)c3ccc(O)cc3O)c2O)N1 [PKUMDL-WQ-2101-Biotin] | 49.5 µM | – | – | –
O=C(N/N=C/c1cc([N+](=O)[O-])ccc1O)c1ccc(O)cc1O [PKUMDL-WQ-2101] | 44.9 µM | 30.1 µM | 0.56 µM | –
CCNC(=S)N/N=C\c1ccc(-c2ccc(C(=O)O)c(Cl)c2)o1 [PKUMDL-WQ-2201] | – | 35 µM | – | 66.9 µM

The remaining lines, values ahead:

IC50 [1] | IC50 [2] | Kd [3] | Kd ([3]; read-out: Kd) | Structure (SMILES)
42 µM | – | – | 29 µM | Cc1c(/N=N/c2cccc(C(=O)O)c2)c(O)[nH]c(=O)c1C#N [PKUMDL-WQ-2202]
28.1 µM | – | – | 7.22 µM | O=C(O)CSC1=C(SCC(=O)O)C(=O)C(SCC(=O)O)=C(SCC(=O)O)C1=O [PKUMDL-WQ-2203]
